In patent US8093299B2, “Methods of treating bowel disorders” (Amgen Inc., priority 2007, dated 2012):
“And” between values parts separate entries of the source, which are not always exact repeats. Identical values can stand only once. Like-named read-outs stand apart in the source and are kept apart here.

Legend:
[1] = tested on: 5% DSS induced colitis in SJL/J mice; experiment: DSS-induced colitis in mice, histopathologic inflammation score of large intestine; format: in vivo, mouse; conditions: 5% DSS 9 days, SJL/J mice; oral; Compound B 10 mg/kg, FK 506 1 mg/kg
Description: Animals. Female SJL/J mice aged 8-10 weeks were used for this study, purchased from Jackson Laboratories (Bar Harbour, Me.). Female Spraque-Dawley rats (approximately 150-300 grams) were purchased from Charles River Laboratories Inc. (Wilmington, Mass.). Mdr1a−/− mice (FVB.129P2-Abcb1a^tm1BorN7), weight 20-21 g, 8 weeks at initiation of experiments, were housed and maintained (5 per cage) in the animal facility at Amgen Washington. All animals were cared for according to the standard protocols of the Amgen Institutional Animal Care and Use Committee.
Chemical reagents. Dextran sodium sulfate (DSS) with molecular mass 36-50 kDa was purchased from ICN Chemicals, Aurora, Ohio. The DSS solution was prepared as a 5% w/v solution in sterile water (Baxter Healthcare Corporation) and sterile filtered through a 0.45 μm filter before being added to drinking water. Water for the negative control groups was similarly filtered. FK506, (also known as Tacrolimus, active ingredient in Prograf®), chemical name [3S-[3R*[E(1S*,3S*,4S*)],4S*,5R*,8S*,9E,12R*,14R*,15S*,16R*,18S*,19S*,26aR*]]-5,6,8,11,12,13,14,15,16,17,18,19,24,25,26,26a-hexadecahydro-5,19-dihydroxy-3-[2-(4-hydroxy-3-methoxycyclohexyl)-1-methylethenyl]-14,16-dimethoxy-4,10,12,18-tetramethyl-8-(2-propenyl)-15,19-epoxy-3H-pyrodi[2,1-c][1,4]oxaazacyclotricosine-1,7,20,21(4H, 23H)-tetrone monohydrate, was used as a positive control for the inflammation treatment. Tacrolimus is a macrolide immunosuppressant produced by Streptomyces tsukubaensis. The solution of FK506 (Prograf®, Astellas) was prepared as follows: 0.1 mg/ml solution in phosphate buffered saline (PBS) was prepared by diluting 5 mg/ml stock solution. The animals were dosed with FK506 at 1 mg/kg in 200 μl of PBS.
Calcimimetic solutions (Compound A, 3-(2-chlorophenyl)-N-((1R)-1-(3-(methyloxy)phenyl)ethyl)-1-propanamine, Compound B, (1R)-N-((6-(methyloxy)-4′-(trifluoromethyl)-3-biphenylyl)methyl)-1-phenylethanamine, Compound C, N-(2-chloro-5-((((1R)-1-phenylethyl)amino)methyl)phenyl)-5-methyl-3-isoxazolecarboxamide, and Compound D, N-(2-chloro-5-((((1R)-1-phenylethyl)amino)methyl)phenyl)-2-pyridinecarboxamide) were formulated and dosed in free base equivalents at volumes determined by the pharmacologist. Formulation vehicle was 20% (w/v) Captisol (β-Cyclodextrin Sulfobutyl Ether Sodium Salt, Research Grade from CyDex, Inc.) in water with a final pH of 2.0-2.2 at room temperature, adjusted with HCl and NaOH as required. Final concentrations of DMSO never exceeded 0.1% (v/v).
DSS colitis in mice. All experiments were performed on groups of 8 to 10 SJL-J mice, housed in the same cage. For disease induction, mice were given a 5% DSS ad libitum as drinking water for 9 days.
Postmortem evaluation. Mice and rats were euthanized by CO2 asphyxiation. The large intestine were removed from the carcass, evaluated for gross lesions and three individual non-adjacent segments of proximal, middle and distal large intestine 2 centimeters long were immersed in the Zinc Formalin fix for 24 hours. At the end of 24 hours the sections were washed with tap water and put into 70% ethanol. Each section was then cut into three 3 mm pieces (9 pieces per animal), processed into paraffin blocks, and sections were cut in 5 μm sections and stained with hematoxylin and eosin.
Histopathologic changes of the proximal, middle, and distal small and large intestine was scored as a global assessment of inflammation based on inflammatory infiltrate, edema, mucosal erosions or ulcerations as described in Table 6.
For disease induction, treated mice were given 5% DSS in water ad libitum as drinking water for 9 days as described in Example 1 and were concurrently treated orally during that period with one of the treatments listed in Table 8.
FIG. 1 and Table 8 summarize the effect of the calcimimetic compound B on colonic inflammation in 5% DSS induced colitis. Animals were euthanized with carbon dioxide on day nine post treatment. […]

[2] = tested on: rat unstripped colonic sheets (enteric nervous system activity)
[3] = tested on: colitis in mdr1a-/- mice induced by H. bilis; experiment: Colitis in mdr1a-/- mice infected with Helicobacter bilis (clinical score, disease onset, histology); format: in vivo, mouse
[4] = tested on: IP-10; experiment: Serum IP-10 in mdr1a-/- colitis study; format: in vivo, mouse; conditions: treatment groups vs vehicle treated animals
Procedure: (§1) All mice were necropsied on day 38 post initial inoculation. Mice were euthanized by CO2 asphyxiation. Blood was obtained by intracardiac puncture and collected in serum separator tubes. Serum was harvested and stored at −80° C. Colons were dissected below the cecum and just above the anus, and the contents of the lumen were removed. Sections of the proximal, middle, and distal colon regions were fixed in 10% neutral buffered formalin for histopathological analysis.
(§2) Serum clinical chemistry analysis was performed on the Olympus AU400 using standard tests and protocols. Calcium and phosphorus measurements were performed on undiluted serum for all samples. Serum cytokines and chemokines were assayed by Lincoplex mouse cytokine/chemokine muliplex immunoassasy (Millipore; Billerica, Mass.) per manufacturer instructions.
(§3) Results for serum analytes were expressed as the mean±standard error of the mean (SEM). A one-way ANOVA with Tukey's post test was performed using GraphPad Prism. A p-value of 0.05 was used in the calculation to determine whether there were significant differences between any two groups. Results for disease onset were expressed as a standard survival curve. A Log-Rank (Mantel-Cox) Test was performed using GraphPad Prism to determine significance. A p-value of 0.05 was used in the calculation to determine whether there were significant differences between any two groups. Results for clinical score and histology score were expressed as the mean±SEM. A Cochran-Mantel-Haenszel mean score test was performed using SAS software. A p-value of 0.05 was used in the calculation to determine whether there were significant differences between any two groups.

[5] = Serum calcium and phosphorus in mdr1a-/- colitis study; format: in vivo, mouse; conditions: 10 mg/kg PO daily; day 38
Procedure: as §1, §2, §3

[6] = Compound A 10 μM, bumetanide 100 μM, proximal and distal colon
[7] = 10 mg/kg PO daily, day 38, score 0-4

## C=CC[C@@H]1/C=C(\C)C[C@H](C)C[C@H](OC)[C@H]2O[C@@](O)(C(=O)C(=O)N3CCCC[C@H]3C(=O)O[C@H](/C(C)=C/[C@@H]3CC[C@@H](O)[C@H](OC)C3)[C@H](C)[C@@H](O)CC1=O)[C@H](C)C[C@@H]2OC (relative stereo) [FK 506, [3S-[3R*[E(1S*,3S*,4S*)],4S*,5R*,8S*,9E,12R*,14R*,15S*,16R*,18S*,19S*,26aR*]]-5,6,8,11,12,13,14,15,16,17,18,19,24,25,26,26a-hexadecahydro-5,19-dihydroxy-3-[2-(4-hydroxy-3-methoxycyclohexyl)-1-methylethenyl]-14,16-dimethoxy-4,10,12,18-tetramethyl-8-(2-propenyl)-15,19-epoxy-3H-pyrodi[2,1-c][1,4]oxaazacyclotricosine-1,7,20,21(4H, 23H)-tetrone monohydrate, reference compound]
[1]
  Animals with colonic inflammation/total animals: 10/10

## COc1cccc([C@@H](C)NCCCc2ccccc2Cl)c1 [Compound A, 3-(2-chlorophenyl)-N-((1R)-1-(3-(methyloxy)phenyl)ethyl)-1-propanamine]
[2]; [6]
  short-circuit current, subsequent addition after 2 μM TTX: no additional effect
[2]; over 15 minutes, proximal and distal colon, TTX 2 μM, Compound A 10 μM
  secretory short-circuit current, agent added first: inhibited the secretory short-circuit current

## COc1ccc(CN[C@@H](C)c2ccccc2)cc1-c1ccc(C(F)(F)F)cc1 [S-Compound B]
[3]; 10 mg/kg PO daily
  day on which animals began showing clinical symptoms (disease onset): 27 days
[3]; 10 mg/kg PO daily, day 27, n=5
  number of animals with clinical signs of disease at onset day: two
[3]; 10 mg/kg PO daily, day 38
  Average LI score: 1.8
  GI Inflammation LI DISTAL, Segment Mean: 0.60
  GI Inflammation LI MIDDLE, Segment Mean: 0.60
  GI Inflammation LI PROXIMAL, Segment Mean: 0.60
  Total LI score (Max = 12), individual animals: 0 (4×) and 9
[3]; [7]
  GI Inflammation LI DISTAL, individual animals: 0 (4×) and 3
  GI Inflammation LI MIDDLE, individual animals: 0 (4×) and 3
  GI Inflammation LI PROXIMAL, individual animals: 0 (4×) and 3
[3]; 10 mg/kg PO daily, final day
  clinical score of the animal with clinical symptoms (max 8): 4
[3]; R-Compound B 10 and 3 mg/kg groups, S-Compound B 10 mg/kg
  total large intestine (LI) scores of the colitic animals (max 12): 9
[3]; day 38, per treatment group (S-Compound B 10 mg/kg, n=5; R-Compound B 10 mg/kg and 3 mg/kg, n=10 each)
  number of animals with clinical symptoms of disease on the final day of the study: one
[3]; per group: R-Compound B 10 and 3 mg/kg each, S-Compound B 10 mg/kg
  animals with colitis / colon pathology by histology: 1 out of 5
[4]
  elevation of serum IP-10: less elevation
[5]
  serum calcium levels compared to any other group: not statistically different
  serum phosphorus compared to CTLA4 treated animals: significant reduction

## NC1=N[C@H](O)[C@H]2[C@H]3O[C@]4(O)O[C@@H]([C@@H](O)[C@@]2(N1)[C@@H]4O)[C@]3(O)CO [TTX, Tetrodotoxin]
[2]
  secretory short-circuit current, agent added first: inhibited the secretory short-circuit current
  short-circuit current, subsequent addition after 10 μM Compound A: no additional effect

## CCCCNc1cc(C(=O)O)cc(S(N)(=O)=O)c1Oc1ccccc1 [bumetanide, Bumetanide]
[2]; [6]
  short-circuit current, subsequent addition after 2 μM TTX: no additional effect
[2]; TTX 2 μM, bumetanide 100 μM, proximal and distal colon
  short-circuit current, subsequent addition after 10 μM Compound A: no additional effect
